From US20260217765A1, “NOVEL ANTIMICROBIAL PEPTIDE DESIGNED FROM DUCK-DERIVED ANTIMICROBIAL PEPTIDE ANDUSE THEREOF” (INDUSTRY-ACADEMIC COOPERATION FOUNDATION, CHOSUN UNIVERSITY, priority 2023, published 2026)
Peptide text beside a SMILES is read from it.

Tests used:
sheep red blood cells = assay type: cell-based
Method: To evaluate the cytotoxicity of the peptides prepared in <Example 1>, their hemolytic activity against red blood cells was measured. Hemolysis refers to the rupture of red blood cells with the release of hemoglobin into the surrounding fluid. The cytotoxicity of the novel peptides of the present disclosure was assessed by measuring their hemolytic activity against erythrocytes.
Specifically, sheep red blood cells were diluted with PBS (pH 7.0) to a final concentration of 8%. The peptides dCATH, dCATH-A1, dCATH-A2, dCATH-A3, dCATH-A4, dCATH-A5, dCATH-A6, and dCATH-A7 were each added to the wells at concentrations of 3.13, 6.25, 12.5, 25.0, 50.0, and 100.0 μM/well and reacted at 37° C. for 1 hour. Thereafter, the samples were centrifuged at 1, 000×g, and the absorbance of hemoglobin in the supernatant was measured at 414 nm. As a control for complete cell lysis, 1% Triton X-100 (Sigma, USA) was used and incubated under the same conditions. The absorbance of this sample was set to represent 100% hemolysis, and hemolytic activity (%) for each peptide was calculated using the following Equation 1.
In the above equation, Absorbance A is the absorbance at 414 nm of the reaction solution treated with each peptide, Absorbance B is the absorbance at 414 nm of the PBS-treated reaction solution, and Absorbance C is the absorbance at 414 nm of the reaction solution treated with 1% Triton X-100.

[1] = system: Acinetobacter baumannii KCTC 2508; assay type: cell-based; details: various salt concentrations
Method: To determine whether the peptides prepared in <Example 1> retain antimicrobial activity under salt concentrations present in vivo, the minimal inhibitory concentration (MIC) of the peptides was measured under various salt concentrations. Specifically, among the bacterial strains listed in Table 2, Acinetobacter baumannii KCTC 2508 was cultured in suitable medium to the mid-log phase, then diluted to a concentration of 2×10^4 cells/100 μL and dispensed into a microtiter plate (Nunc, USA). The peptides prepared in <Example 1> were serially diluted two-fold under various salt concentration conditions and added to the wells, followed by incubation at 37° C. for 18 hours. Absorbance at 600 nm was measured using a microtiter plate reader (Merck ELISA reader, Germany) to determine the MIC values for each strain. The parent peptide dCATH was used as a control.

[2] = system: Acinetobacter baumannii isolate 10; experiment: In vivo antimicrobial activity, intranasal lung infection, H&E staining; parameters: species or system BALB/c mice; details: mice intranasally infected with A. baumannii isolate 10, peptide intranasal, day 3
Method: Among the peptides prepared in <Example 1>, dCATH-A7 was selected to evaluate in vivo antimicrobial activity.
Among the antibiotic-resistant strains, Acinetobacter baumannii isolate 10 was selected for the experiment. The bacteria were washed three times with PBS buffer prior to use. After a one-week acclimation period, BALB/c mice (6 weeks old) were intranasally infected with 20 μL of a 1×10^9 CFU/mL bacterial suspension. Following infection, the peptide was prepared at a concentration of 5 mg/mL and administered intranasally. On day 3, lung tissue samples were collected and subjected to hematoxylin and eosin (H&E) staining to assess tissue damage.

Row | Structure (SMILES) | hemolytic activity at concentrations corresponding to antimicrobial activity (sheep red blood cells) | antimicrobial activity (MIC) under salt conditions compared to the parent peptide dCATH [1] | lung tissue damage (H&E staining) [2]
1 | CC[C@H](C)[C@H](NC(=O)[C@H](C)NC(=O)[C@H](CCCCN)NC(=O)[C@H](CCCCN)NC(=O)[C@@H](NC(=O)[C@H](CC(C)C)NC(=O)[C@H](CCC(N)=O)NC(=O)[C@H](C)NC(=O)[C@H](C)NC(=O)[C@H](CCCNC(=N)N)NC(=O)[C@@H](N)CCCCN)C(C)C)C(=O)N[C@@H](CCCCN)C(=O)N[C@@H](CCCCN)C(=O)N[C@@H](Cc1ccc(O)cc1)C(=O)N[C@@H](CCCNC(=N)N)C(=O)N[C@@H](C)C(=O)N[C@@H](Cc1c[nH]c2ccccc12)C(=O)N[C@@H](CCCCN)C(=O)N[C@@H](CCCNC(=N)N)C(=O)N[C@@H](CCCNC(=N)N)C(N)=O [dCATH-A6] (H-KRAAQLVKKAIKKYRAWKRR-NH2; N-terminus assumed) | no hemolytic activity | lower MIC values than the control | 
2 | CC[C@H](C)[C@H](NC(=O)[C@H](C)NC(=O)[C@H](CCCCN)NC(=O)[C@H](CCCCN)NC(=O)[C@@H](NC(=O)[C@H](CC(C)C)NC(=O)[C@H](CCC(N)=O)NC(=O)[C@H](C)NC(=O)[C@H](C)NC(=O)[C@H](CCCNC(=N)N)NC(=O)[C@@H](N)CCCCN)C(C)C)C(=O)N[C@@H](CCCCN)C(=O)N[C@@H](CCCCN)C(=O)N[C@@H](Cc1ccc(O)cc1)C(=O)N[C@@H](CCCNC(=N)N)C(=O)N[C@@H](C)C(=O)N[C@@H](Cc1c[nH]c2ccccc12)C(=O)N[C@@H](CCCCN)C(N)=O [dCATH-A7, KRAAQLVKKAIKKYRAWK] (H-KRAAQLVKKAIKKYRAWK-NH2; N-terminus assumed) | no hemolytic activity | lower MIC values than the control | minimal fibrosis and overall reduced tissue damage
